# Reference: patent US5912183A, “Peptide inhibitors of mitogenesis and motogenesis” (Pharmacia & Upjohn S.p.A., priority 1993, dated 1999)
# pKd: −log10 of the molar value. Residues, ends and D or L forms follow the SMILES beside them.
# Legend:
# [1] = molecular target: T1, GST-SH2 domain of Shc (Homo sapiens, UniProt P29353); assay: BIAcore binding of Shc SH2 domain to immobilised phosphopeptides; conditions: biosensor; avidin-immobilized biotinylated phosphopeptide
# T1 construct: using the Shc SH2 domain, expressed in bacteria as a GST-fusion protein; made in house; host or cells: bacteria
# T1 sequence (P29353 488-579 limits assumed): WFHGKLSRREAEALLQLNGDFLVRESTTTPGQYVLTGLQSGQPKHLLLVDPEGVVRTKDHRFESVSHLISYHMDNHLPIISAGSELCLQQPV
# Method: FIG. 13. […] The same concentration of Shc-SH2 was injected over two biosensor surfaces on which two phosphopeptides had been immobilised. Y1356P is derived from the sequence VNATY^1356 VNVK (SEQ. ID NO: 28) of the receptor tail; Y317P is derived from the sequence DDPSY^317 VNVQ (SEQ. ID NO: 27). Note that both peptides contain the same core (YVNV) but (SEQ. ID NO: 3) different upstream sequences. The initial rapid increase in the response is due to the "bulk effect" of the injected solution.
# In vitro binding studies using GST-fusion protein. The region of the Grb2 cDNA corresponding to its SH2 domain (from nucleotide position 256 to nucleotide position 551) was isolated using polymerase chain reaction (PCR) and cloned into the BamHI-EcoRI sites of the bacterial expression plasmid pGEX-2T (GST-Grb2). Cultures of bacteria expressing GST, GST-Grb2 or GST-Shc (Segatto et al., Oncogene 2105-2112 (1993)) were grown for 3-4 hours at 37° C. in LB medium containing 1 mM IPTG. Bacteria were centrifuged, resuspended in 1/100 volume of ice-cold PY buffer, without Triton™ and lysed by sonication. After adding Triton X-100 to 1%, lysates were clarified by centrifugation. Recombinant proteins were purified onto glutathione Sepharose™ (Pharmacia) and used as such for binding assays. For each reaction, about 5 μg of GST, GST-Grb2 or GST-Shc bound to glutathione Seharose was incubated for 2 hrs. at 4° C. with […] of appropriate cell lysate made in PY buffer. Protein complexes were washed 5 times in ice cold PY buffer, eluted and denatured by heating at 95° C. for 3 min in Laemmli buffer, resolved on SDS-PAGE and analyzed by immunoblot.
# The basic principles of operation as well as the methodology for obtaining kinetic measurements of SH2 domain interactions using the BIAcore instrument (Pharmacia) have been previously described in detail (Panayotou et al., Mol. Cell. Biol. 13: 3567-3576 (1993), Ponzetto et al., Mol. Cell. Biol. 13: 4600-4608 (1993)). Purified GST-SH2 domains or intact proteins were desalted in BIAcore running buffer (20 mM Hepes, pH 7.4, 150 mM NaCl, 3.4 mM EDTA, 0.005% Tween 20 and 4 mM DTT) and injected over avidin-immobilized, biotinylated phosphopeptides. The amount of phosphopeptides immobilized was normalized by measuring the binding of anti-phosphotyrosine antibodies. Association was measured over a range of protein concentrations and dissociation of bound material was allowed to occur either in buffer flow or upon injection of 20 μM competing, non-biotinylated phosphopetide. Peptide and protein concentrations were calculated by amino acid analysis on an Applied Biosystem amino acid analyzer.
# The direct interaction between the SH2 domain of Shc and phosphotyrosine Y^1349 or Y^1356 was confirmed by real-time Biosensor analysis (Panayotou et al., ibid; Felder et al., Mol. Cell. Biol. 13: 1449-1455 (1993)).
# The Shc sequence Y^317 VNV (SEQ. ID NO: 3) is identical to one of the two Shc binding sites present in the SF/HGF receptor (FIG. 8). […] The biosensor was used to compare binding of the Shc SH2 domain to the phosphopeptide DDPSY^317 VNVQ (SEQ. ID NO: 27), present on the Shc molecule, and to the phosphopeptide VNATY^1356 VNVK (SEQ. ID NO: 28), present on the SF/HGF receptor. […] Thus Shc-Shc association is not favoured in vivo, and the Shc phosphotyrosine residue Y^317 is available to bind other molecules, rather than to mediate the formation of concatamers.
# [2] = molecular target: T2, Grb2 SH2 domain (Homo sapiens, UniProt P62993); assay: BIAcore real-time binding of Grb2 GST-SH2 fusion protein to immobilized phosphopeptide
# T2 construct: corresponding to its SH2 domain (from nucleotide position 256 to nucleotide position 551); made in house; host or cells: bacteria (pGEX-2T)
# T2 sequence (P62993 60-152 limits assumed): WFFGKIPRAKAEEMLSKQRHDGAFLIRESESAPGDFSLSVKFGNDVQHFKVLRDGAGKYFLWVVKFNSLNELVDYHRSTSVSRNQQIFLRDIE
# Method: FIG. 15. The Grb2 SH2 domain binds to the Y^317 docking site of Shc. Panel A: sensorgrams obtained by injection of a range of Gst-SH2.Grb2 concentrations over the immobilised phosphopeptide derived from the Shc sequence DDPSY^317 VNVQ (SEQ. ID NO: 27). Panel B: effect of competing peptide on the dissociation rate. At the end of the Grb2 injection, buffer or […] of non-biotinylated phosphopeptide were injected. Panel C: analysis of the data shown in panel A. The figure on the left is a plot of the rate of binding versus the relative response for the six different sensorgrams. In the figure on the right, the slopes of each line are plotted against the concentration: the new slope gives the value of the association rate constant.
# In vitro binding studies using GST-fusion protein. The region of the Grb2 cDNA corresponding to its SH2 domain (from nucleotide position 256 to nucleotide position 551) was isolated using polymerase chain reaction (PCR) and cloned into the BamHI-EcoRI sites of the bacterial expression plasmid pGEX-2T (GST-Grb2). Cultures of bacteria expressing GST, GST-Grb2 or GST-Shc (Segatto et al., Oncogene 2105-2112 (1993)) were grown for 3-4 hours at 37° C. in LB medium containing 1 mM IPTG. […] Protein complexes were washed 5 times in ice cold PY buffer, eluted and denatured by heating at 95° C. for 3 min in Laemmli buffer, resolved on SDS-PAGE and analyzed by immunoblot.
# The basic principles of operation as well as the methodology for obtaining kinetic measurements of SH2 domain interactions using the BIAcore instrument (Pharmacia) have been previously described in detail (Panayotou et al., Mol. Cell. Biol. 13: 3567-3576 (1993), Ponzetto et al., Mol. Cell. Biol. 13: 4600-4608 (1993)). […] Association was measured over a range of protein concentrations and dissociation of bound material was allowed to occur either in buffer flow or upon injection of 20 μM competing, non-biotinylated phosphopetide. Peptide and protein concentrations were calculated by amino acid analysis on an Applied Biosystem amino acid analyzer. […]
# [3] = molecular target: T3, binding of p85 to HGF/SF receptor (Bos taurus, UniProt P23727); assay: Competition of phosphopeptides with p85 for association with immobilized recombinant HGF/SF receptor (in vitro kinase assay readout); set-up: species or system human
# T3 construct: made in house; host or cells: Sf9 insect cells (baculovirus), for both p85 and the receptor
# T3 sequence (P23727 whole entry): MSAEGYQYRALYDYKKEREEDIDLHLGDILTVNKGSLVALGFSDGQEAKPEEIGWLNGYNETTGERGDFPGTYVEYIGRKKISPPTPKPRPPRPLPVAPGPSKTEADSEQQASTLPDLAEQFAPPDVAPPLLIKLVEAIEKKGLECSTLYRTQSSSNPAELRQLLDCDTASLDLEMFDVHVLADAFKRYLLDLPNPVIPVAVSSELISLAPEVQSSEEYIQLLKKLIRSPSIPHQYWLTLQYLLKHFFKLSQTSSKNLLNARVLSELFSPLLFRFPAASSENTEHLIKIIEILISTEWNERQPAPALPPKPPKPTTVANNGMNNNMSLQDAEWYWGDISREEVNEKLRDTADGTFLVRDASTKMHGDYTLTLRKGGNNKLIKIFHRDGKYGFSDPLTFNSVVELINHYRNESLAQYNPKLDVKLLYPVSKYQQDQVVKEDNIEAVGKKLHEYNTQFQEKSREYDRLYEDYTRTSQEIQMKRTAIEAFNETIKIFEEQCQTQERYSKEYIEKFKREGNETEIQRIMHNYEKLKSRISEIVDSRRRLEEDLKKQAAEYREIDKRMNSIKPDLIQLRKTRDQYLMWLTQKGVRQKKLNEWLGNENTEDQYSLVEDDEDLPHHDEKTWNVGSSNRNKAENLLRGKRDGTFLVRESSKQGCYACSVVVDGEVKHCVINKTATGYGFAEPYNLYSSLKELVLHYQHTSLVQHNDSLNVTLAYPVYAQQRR
# Method: FIG. 1. Inhibition of binding of p85 to HGF/SF receptor by tyrosine-phosphorylated peptides. Recombinant HGF/SF receptor was purified by immunoprecipitation from baculovirus-infected Sf9 cells using a rabbit polyclonal antiserum and phosphorylated with cold ATP. Lysates of Sf9 cells expressing p85 were pre-incubated with each of the phosphopeptides (10 μM). The lysates were then allowed to associate with immobilized recombinant HGF/SF receptors. Following association the complex was washed and receptor-bound p85 was detected by an in vitro kinase assay, as described in Materials and Methods of Example 4. The phosphopeptides are identified by the number of the amino terminal tyrosine.
# FIG. 2. Inhibition of binding of p85 to HGF/SF receptor with different concentrations of tyrosine-phosphorylated peptides. The phosphopeptides which efficiently out-competed p85 binding to the HGF/SF receptor (FIG. 1) were used at increasing concentrations (10 nM, 100 nM, 1 μM from left to right) to define their relative affinities for p85. Conditions of the experiment were as in FIG. 1. Phosphopeptide 1365 was used as a negative control for p85 interaction.
# In vitro association experiments. Sf9 cells expressing the recombinant HGF/SF receptor (approximately 4×10^6 cells/point) were lysed 36 hours after infection in buffer A (10 mM Tris-HCl buffer pH 7.5, 10% glycerol, 1% Triton X-100, 150 mM NaCl, 5 mM EDTA), supplemented with 0.2 mM phenyl-methylsulfonyl fluoride, 1 μg/ml leupeptin, 0.1 TIU/ml aprotinin and 1 μg/ml pepstatin. Lysates were clarified at 15,000×g at 4° C. for 15 minutes and the supernatants immunoprecipitated after 2 hours incubation with anti-Met antibodies coupled to Protein A-Sepharose. Immunocomplexes were washed three times with buffer A, once with buffer B (10 mM Tris-HCl pH 7.4, 100 mM NaCl, 1 mM EDTA) and once with buffer C (25 mM 4-(2-hydroxyethyl)-1-piperazine-ethanesulfonic acid (HEPES) buffer pH 7.2, 100 mM NaCl, 5 mM MgCl2). Samples were pre-phosphorylated by incubation for 15 minutes at 25° C. in buffer C with 10 μM unlabelled ATP and then washed three times with cold buffer A supplemented with 1 mM sodium ortho-vanadate. Association between the immobilized receptor and the baculovirus-expressed p85 was carried out as previously described (Bardelli, A., et al., Oncogene 7: 1973-1978 (1992)). For the association experiments with the PI 3-kinase holoenzyme three days serum-starved A549 cells (approx. 2×10^6 cells/point) were used as a source of PI 3-kinase. A549 cells were Dounce-homogenized in MOPS buffer (20 mM 3-(N-morpholino)propanesulfonic acid) (pH 7.5), 1 mM MgCl2, 0.1 mM EDTA, 200 mM sucrose, 1 mM sodium ortho-vanadate), supplemented with 0.2 mM phenylmethylsulfonyl fluoride, 1 μg/ml leupeptin, 0.1 TIU/ml aprotinin and 1 μg/ml pepstatin. Homogenates were centrifuged at 100,000×g for 20 minutes at 4° C. When checking for the ability of phosphopeptides to block the association with the receptor, cell lysates were pre-incubated with the phosphopeptides for 1 hour at 4° C. prior to incubation with the immobilized recombinant HGF/SF receptor. Following association, immunocomplexes were washed three times with buffer A, twice with buffer D (0.5M LiCl, 100 mM Tris-HCl pH 7.6), and twice with buffer B.
# The presence of the p85 subunit of the PI 3-kinase in the receptor immunoprecipitate was determined by: i) labelling of the receptor and associated proteins with [γ-^32 P]ATP by in vitro kinase assay; ii) Western immunoblotting; iii) PI 3-kinase activity assay.
# In vitro kinase assay. Receptor-associated proteins were labelled in 20 μl of buffer C, in the presence of 10 μCi [γ-^32 P]ATP (specific activity 7,000 Ci/Mm; Amersham) at 25° C. for 15 minutes. The reaction was stopped by adding 1 ml of ice-cold Buffer A without protease inhibitors. Samples were washed three times with cold buffer A. The labelled immunocomplexes were eluted from Protein A-Sepharose in boiling Laemmli buffer. […]
# [4] = tested on: binding of PI 3-kinase holoenzyme to HGF/SF receptor; assay: Competition of phosphopeptides with PI 3-kinase holoenzyme (A549 cytosolic extracts) for association with recombinant HGF/SF receptor (PI 3-kinase activity assay); set-up: species or system human; conditions: phosphopeptide 10 μM; A549 cytosolic extracts; FIG. 3
# Method: FIG. 3. Inhibition of binding of PI 3-kinase holoenzyme to HGF/SF receptor by tyrosine-phosphorylated peptides. The phosphopeptides which efficiently out-competed p85 (FIG. 1) were assayed for the ability to interfere with binding of the PI 3-kinase holoenzyme to the HGF/SF receptor. Cytosolic extracts from three days-starved A549 cells were pre-incubated with each of the phosphopeptides (10 μM) prior to incubation with the immobilized recombinant HGF/SF receptor. The presence of receptor-associated PI 3-kinase in the immunocomplexes was determined by PI 3-kinase activity assay, as described in Materials and Methods of Example 4. The position of the phosphatidylinositol-3-phosphate (PIP) product of the PI 3-kinase reaction is indicated.
# In vitro association experiments. Sf9 cells expressing the recombinant HGF/SF receptor (approximately 4×10^6 cells/point) were lysed 36 hours after infection in buffer A (10 mM Tris-HCl buffer pH 7.5, 10% glycerol, 1% Triton X-100, 150 mM NaCl, 5 mM EDTA), supplemented with 0.2 mM phenyl-methylsulfonyl fluoride, 1 μg/ml leupeptin, 0.1 TIU/ml aprotinin and 1 μg/ml pepstatin. […]
# The presence of the p85 subunit of the PI 3-kinase in the receptor immunoprecipitate was determined by: i) labelling of the receptor and associated proteins with [γ-^32 P]ATP by in vitro kinase assay; ii) Western immunoblotting; iii) PI 3-kinase activity assay. […]
compound,measurement,setting,value
"CC(C)[C@H](NC(=O)[C@H](CC(N)=O)NC(=O)[C@@H](NC(=O)[C@H](Cc1ccc(OP(=O)(O)O)cc1)NC(=O)[C@H](CO)NC(=O)[C@@H]1CCCN1C(=O)[C@H](CC(=O)O)NC(=O)[C@@H](N)CC(=O)O)C(C)C)C(=O)N[C@@H](CCC(N)=O)C(=O)O [DDPSY^317* VNVQ, H-Asp-Asp-Pro-Ser-Tyr*-Val-Asn-Val-Gln-OH] (HELM PEPTIDE1{D.D.P.S.[O=C([C@H](Cc1ccc(OP(=O)(O)O)cc1)N[*:1])[*:2]].V.N.V.Q}$$$$V2.0)",Binding of Shc SH2 domain to immobilised phosphopeptide,[1],much more weakly
same,kon,"[2]; Grb2 GST-SH2 over immobilized phosphopeptide, read-out: K^ass (association rate constant)",260000 M⁻¹ s⁻¹
same,pKd,"[2]; from Kdiss and K^ass, read-out: Overall affinity",6.82
same,Kdiss (dissociation rate),[2]; measured in buffer and in the presence of competing phosphopeptide to prevent re-binding,0.04 S^-1
CC(C)[C@H](NC(=O)[C@H](CC(N)=O)NC(=O)[C@@H](NC(=O)[C@H](Cc1ccc(OP(=O)(O)O)cc1)NC(=O)[C@@H](NC(=O)[C@H](C)NC(=O)[C@H](CC(N)=O)NC(=O)[C@@H](NC(=O)[C@H](Cc1c[nH]cn1)NC(=O)[C@@H](NC(=O)[C@@H](N)Cc1ccc(OP(=O)(O)O)cc1)C(C)C)C(C)C)[C@@H](C)O)C(C)C)C(=O)N[C@@H](CCCCN)C(=O)O [H-Tyr*-Val-His-Val-Asn-Ala-Thr-Tyr*-Val-Asn-Val-Lys-OH] (HELM PEPTIDE1{[N[C@@H](Cc1ccc(OP(=O)(O)O)cc1)C(=O)[*:2]].V.H.V.N.A.T.[O=C([C@H](Cc1ccc(OP(=O)(O)O)cc1)N[*:1])[*:2]].V.N.V.K}$$$$V2.0),Inhibition of binding of p85 to HGF/SF receptor,"[3]; phosphopeptide 10 μM, p85 from Sf9 lysates, FIG. 1",completely prevented p85 binding
same,Efficiency at outcompeting p85 (relative affinity for p85),"[3]; phosphopeptides at 10 nM, 100 nM, 1 μM, FIG. 2, rank order SEQ. ID NO: 19, then 22, 20, 18",comparable to H-Tyr*-Val-Asn-Val-Lys-Cys-Val-Ala-OH
same,Interference with binding of PI 3-kinase holoenzyme to HGF/SF receptor,[4],more efficient at displacing the PI 3-kinase holoenzyme from the HGF/SF receptor than those including just one of these residues
